# Results reported in patent US20040047863A1, “Combination therapy using a TNF binding protein for treating TNF-mediated diseases” (Amgen Inc., priority 1996, published 2004).
# Experiments:
# [1] = system: adjuvant arthritic rats; assay: Adjuvant-induced arthritis model, combination of c105 sTNFR-I dumbbell and methotrexate (Example 1); assay type: in vivo, rat
# Method: An animal model of rheumatoid arthritis induced by an adjuvant was used to investigate the combination therapy of a TNF binding protein and methotrexate in male Lewis rats (3-7/group) weighing at least 200 g.
# On day-0, all rats were injected with 100 μl of Freunds Complete Adjuvant (Sigma Chemical Co., St. Louis, Mo.) to which a synthetic adjuvant, N,N-dioctyldecyldecyl-N′, N-bis(2-hydroxy-ethyl) propanediamine, 50 mg/ml, was added. On days 0-14 methotrexate in 1% carboxymethylcellulose (Sigma) was orally administered daily (0.06 mg/kg) to two groups of rats. On days 8, 10, 12, and 14, E. coli-derived c105 sTNFR-I dimerized with PEG-20,000-bis-vinyl sulfone (c105 sTNFR-I dumbbell; prepared generally in accordance with the teachings of WO 95/34326) formulated in pharmaceutical composition (34 mM NaCl, 10 mM sodium phosphate, 4% sorbitol (w/v) in water; pH 6.5) was administered by subcutaneous (SC) injection (3 mg/kg) to one group of rats being treated with both Freunds Complete Adjuvant and methotrexate and to another group of rats being treated with Freunds Complete Adjuvant alone.
# Body weights were taken on day 0 and every other day from day 9 to termination on day 15. Caliper measurements and clinical scoring were done on day 9 and every other day until termination. At this time animal's body, paw and spleen weights were determined.
# [2] = system: adjuvant arthritic rats; assay: Adjuvant-induced arthritis model, combination of sTNFR-II Fc and methotrexate (Example 2); assay type: in vivo, rat
# Method: An animal model of rheumatoid arthritis induced by an adjuvant was used to investigate the combination therapy of a TNF binding protein and methotrexate in male Lewis rats (5-7/group) weighing at least 200 g.
# On day-0, all rats were injected with 100 μl of Freunds Complete Adjuvant (Sigma Chemical Co., St. Louis, Mo.) to which a synthetic adjuvant, N,N-dioctyldecyldecyl-N′, N-bis(2-hydroxy-ethyl) propanediamine, 50 mg/ml, was added. On day 0-14 methotrexate in 1% carboxymethylcellulose (Sigma) was orally administered daily (0.06 mg/kg) to two groups of rats. On days 9, 11, and 13, CHO-derived sTNFR-II/hIgG1 fusion protein (sTNFR-II Fc; prepared generally in accordance with the teachings of EP 418 014) formulated in pharmaceutical composition (34 mM NaCl, 10 mM sodium phosphate, 4% sorbitol (w/v) in water; pH 6.5) was administered by subcutaneous infusion (18 mg/kg) to one group of rats being treated with both Freunds Complete Adjuvant and methotrexate and to another group of rats being treated with Freunds Complete Adjuvant alone.
# Body weights were taken on day 0 and every other day from day 9 to termination on day 15. Caliper measurements and clinical scoring were done daily from day 9 until termination on day 15. At this time animal's body, paw and spleen weights were determined.
# [3] = system: MRL-1pr/1pr autoimmune mice challenged with LPS/D-GalNH2; assay: LPS/D-Galactosamine induced lethality model (Example 3); assay type: in vivo, mouse; settings: N=6
# Method: The combination immunotherapeutic effects of c105 STNFR-I dumbbell and fas fusion protein were assessed using a mouse model of D-Galactosamine (D-GalNH2) induced lethality. The D-galactosamine (D-GalNH2)/Lipopolysaccharide (LPS) model (Mountz et al., J. Immunology, 155:4829-4837). In this model, MRL-1pr/1pr autoimmune mice are administered D-GalNH2 with bacterial endotoxin (LPS), and lethality is observed through +96 hours post challenge.
# After overnight fasting, 6-8 week old female MRL-1pr/1pr mice (Jackson Laboratory, Bar Harbor, Me.) (5/7/group) were cannulated with jugular catheters and allowed to recover for several days. They were then placed in infusion cages and acclimated for a week prior initiating saline infusion.
# At hour-0, all mice were injected intraperitoneally with 31 micrograms of D-GalNH2 (Sigma) suspended in Hank's Balanced Salt Solution (Gibco BRL) (120 micrograms/ml); and lipopolysaccharide (LPS) from E. coli Serotype 0127:B8 (Sigma) in sterile, endotoxin-free phosphate buffered saline (PBS) (6 micrograms/mouse).
# At 0-hour-+2 hours post-challenge, fas fusion protein formulated in a pharmaceutical composition (Phosphate buffered saline (Gibco BRL, Grand Island, N.Y.)) was administered intravenously in serial 2-fold dilutions (microgram/kg dosages) to two groups of mice. […]
# [4] = final analysis (inhibition at termination, day 15), c105 sTNFR-I dumbbell 3 mg/kg SC, methotrexate 0.06 mg/kg oral daily
# [5] = male Lewis rats, Freunds Complete Adjuvant, c105 sTNFR-I dumbbell 3 mg/kg SC days 8, 10, 12, 14, methotrexate 0.06 mg/kg oral daily days 0-14
# [6] = male Lewis rats, Freunds Complete Adjuvant, c105 sTNFR-I dumbbell 3 mg/kg SC days 8, 10, 12, 14, methotrexate 0.06 mg/kg oral daily days 0-14, as reported with FIGS. 3 and 4
# [7] = male Lewis rats, Freunds Complete Adjuvant, sTNFR-II Fc 18 mg/kg subcutaneous days 9, 11, 13, methotrexate 0.06 mg/kg oral daily days 0-14
Molecule,"inhibition of body weight change [1, 4] [%]","inhibition of paw inflammation (terminal paw weights) [1, 4] [%]","inhibition of splenomegaly (terminal spleen weights) [1, 4] [%]","inhibition of paw swelling (area under the curve-AUC) [1, 5]","inhibition of body weight change [1, 6]","inhibition of splenomegaly / spleen weight [1, 6]","inhibition of paw inflammation (terminal paw weights) ([2]; final analysis (inhibition at termination, day 15), sTNFR-II Fc 18 mg/kg, methotrexate 0.06 mg/kg oral daily) [%]","inhibition of body weight change [2, 7] [%]","inhibition of paw swelling (area under the curve—AUC) [2, 7] [%]","inhibition of splenomegaly / spleen weight [2, 7] [%]","survival ([3]; c105 sTNFR-I dumbbell 100 micrograms/kg I.V., time=−1 hour before challenge, P<0.01 vs saline control) [%]","protection ([3]; sub-optimal dose 25 micrograms/kg, through +96 hours after challenge) [%]"
"N-[4-[(2,4diamino-6-pteridinyl)methylamino]benzoyl]-L-glutamic acid [methotrexate]",3,3.9,8.5,26%,3%,no inhibition,74,64,66,74,,
"c105 sTNFR-I dumbbell: E. coli-derived c105 sTNFR-I dimerized with PEG-20,000-bis-vinyl sulfone (protein, UniProt P19438 30-211, looked up, extracellular domain c105 truncation; PEG-20000-bis-vinyl sulfone dimer, E. coli-derived c105 sTNFR-I dimerized with PEG-20,000-bis-vinyl sulfone) extracellular domain: LVPHLGDREKRDSVCPQGKYIHPQNNSICCTKCHKGTYLYNDCPGPGQDTDCRECESGSFTASENHLRHCLSCSKCRKEMGQVEISSCTVDRDTVCGCRKNQYRHYWSENLFQCFNCSLCLNGTVHLSCQEKQNTVCTCHAGFFLRENECVSCSNCKKSLECTKLCLPQIENVKGTEDSGTT",13.2,10.9,30.4,about 42%,about 13.2%,no significant benefit,,,,,100,−35
